Experimental data as given in EP0906100B1, “USE OF 5-HT 1A? RECEPTOR ANTAGONISTS FOR THE TREATMENT OF URINARY INCONTINENCE” (RECORDATI S.A., priority 1996, dated 1997).

Columns and labels:
α1-adrenergic receptor = test: [3H]prazosin binding (α1-receptors), rat cerebral cortices; settings: 0.35 nM [3H]prazosin, read-out: Binding affinity for the α1-adrenergic receptor, Ki
Description: [^3H]prazosin binding (α1-receptors):
Rat cerebral cortices were homogenized in 50 volumes of ice-cold 50 mM Tris-HCl pH 7.4. The homogenates were centrifuged at 48,000 x g for 10 minutes, and the pellets were resuspended in the same volume of ice-cold buffer, centrifuged, and resuspended two more times. The final pellets were resuspended in 100 volumes of 50 mM Tris-HCl, pH 7.4, containing 0.1 % ascorbic acid and 10 µM pargyline. […] Non-specific binding was determined in the presence of 10 µM phentolamine. The incubations were terminated by rapid filtration through Whatman GF/B filters using a Brandel cell harvester, after which the filters were washed with 3x3 ml of ice-cold buffer. The radioactivity retained on the filters was determined by liquid scintillation counting.

[1] = system: cystometric parameters (bladder volume capacity, micturition pressure); test: Cystometric parameters (BVC, MP) in the conscious rat; format: in vivo, rats; settings: for BVC before treatment / MP before treatment: baseline; for BVC before treatment / MP before treatment / BVC after treatment / MP after treatment: mean±S.E.
Description: Male Sprague Dawley rats (Crl: CD° BR) weighing 250-350 g were used. The animals were housed with free access to food and water and maintained on a forced 12 h alternating light-dark cycle at 22-24°C for at least one week, except during performance of the experiment.
An approximately 10 mm long midline incision was made in the shaved and cleaned abdominal wall. The urinary bladder was gently freed from adhering tissues, emptied, and then cannulated, via an incision at the dome, with a polyethylene cannula (Portex PP30), which was permanently sutured with silk thread. The cannula was exteriorized through a subcutaneous tunnel in the retroscapular area, where it was connected with a plastic adapter to avoid the risk of removal by the animal. For intravenous (i.v.) injection of test compounds, a PE 50 polyethylene tubing filled with physiological saline was inserted into the jugular vein and exteriorized in the retroscapular area.
Since cystometrographic parameters have been reported to be influenced by the time elapsed after catheter implantation […].
On the day of the experiment, the rats were placed in Bollman's cages; after a stabilization period of 20 min, the free tip of the bladder catheter was connected through a T-shaped tube to a pressure transducer (Bentley T 800/Marb P 82) and to a peristaltic pump (Gilson minipuls 2) for a continuous infusion, at the constant rate of 0.1 ml/min, of saline solution into the urinary bladder. The intraluminal pressure signal during infusion was continuously recorded on a polygraph (Battaglia Rangoni KO 380 with ADC1/T amplifier). Two urodynamic parameters were evaluated: bladder volume capacity (BVC) and micturition pressure (MP). BVC (in ml) is defined as the minimum volume infused after which detrusor contraction (followed by micturition) occurs. MP (in mmHg) is defined as the maximal intravesical pressure induced by the contraction of detrusor during micturition. Basal BVC and MP values were calculated as the means of the first two recorded cystometrograms. At this point, the infusion was interrupted and the test compounds were administered. Fifteen minutes after intravenous administration, or one hour after oral drug administration, two additional cystometrograms were recorded in each animal and the mean values of the two cystometrographic parameters were calculated.
The statistical significance of the differences in urodynamic parameter values was evaluated by Student's t test for paired data. Only changes showing a probability P<0.01 were considered to be significant.

[2] = system: pre-synaptic 5-HT1A receptor; test: Antagonism of hypothermia induced by 8-OH-DPAT in mice; format: in vivo; settings: s.c., hypothermia induced by 0.5 mg/kg s.c. 8-OH-DPAT
Description: Antagonism of hypothermia induced by 8-OH-DPAT in mice:
The antagonistic effect of 5-HT1A receptor antagonists on hypothermia induced by 8-OH-DPAT was evaluated by the method of Moser (Moser, Eur. J. Pharmacol., 193, 165, 1991) with minor modifications.
Male CD-1 mice (28-38 g) obtained from Charles River (Italy) were housed in a climate-controlled room (temperature 22 ± 2°C; humidity 55 ± 15%) and maintained on a 12 h light/dark cycle with free access to food and water. On the day of experiment, mice were placed singly in clear plastic boxes under the same ambient conditions. Body temperature was measured by the insertion of a temperature probe (Termist TM-S, LSI) into the rectum to a depth of 2 cm. Rectal temperature was measured immediately prior to subcutaneous injection of the test compound and 30 min later. All animals then received 8-OH-DPAT (0.5 mg/kg s.c.) and their temperature was measured 30 min later. For each animal, temperature changes were calculated with respect to pretreatment values and the mean values were calculated for each treatment group.

[3] = 100 µg/kg i.v., 15 min after injection
[4] = 300 µg/kg i.v., 15 min after injection
[5] = 1000 µg/kg i.v., 15 min after injection
[6] = 1 mg/kg p.o., 1 hour after oral administration
[7] = 2000 µg/kg i.v., 15 min after injection
[8] = 3 mg/kg p.o., 1 hour after oral administration
[9] = 10 mg/kg p.o., 1 hour after oral administration

COc1ccccc1N1CCN(CCN(C(=O)C2CCCCC2)c2ccccn2)CC1 [Compound A, N-{2-[4-(2-methoxyphenyl)-1-piperazinyl]-ethyl}-N-(2-pyridyl)-cyclohexanecarboxamide]
Ki (α1-adrenergic receptor): 296 nM
BVC before treatment ([1]; 100 µg/kg i.v. group): 0.65 ± 0.06 mL
MP before treatment ([1]; 100 µg/kg i.v. group): 93.0±8.3 mmHg
BVC % change [1, 3]: +4%
MP % change [1, 3]: -10%
BVC after treatment [1, 3]: 0.66 ± 0.08 mL
MP after treatment [1, 3]: 83.8±8.7 mmHg
BVC before treatment ([1]; 300 µg/kg i.v. group): 0.47 ± 0.05 mL
MP before treatment ([1]; 300 µg/kg i.v. group): 78.7±5.8 mmHg
BVC % change [1, 4]: +32%
MP % change [1, 4]: -11%
BVC after treatment [1, 4]: 0.63 ± 0.06 mL
MP after treatment [1, 4]: 70.0±4.1 mmHg
BVC before treatment ([1]; 1000 µg/kg i.v. group): 0.64 ± 0.05 mL
MP before treatment ([1]; 1000 µg/kg i.v. group): 104.6±6.4 mmHg
BVC % change [1, 5]: +29%
MP % change [1, 5]: -13%
BVC after treatment [1, 5]: 0.83 ± 0.07 mL
MP after treatment [1, 5]: 91.0±6.3 mmHg
BVC before treatment ([1]; 1 mg/kg p.o. group): 0.52 ± 0.07 mL
MP before treatment ([1]; 1 mg/kg p.o. group): 96.0±8.4 mmHg
MP % change [1, 6]: -2%
BVC after treatment [1, 6]: 0.60 ± 0.08 mL
MP after treatment [1, 6]: 93.7±7.2 mmHg
BVC before treatment ([1]; 2000 µg/kg i.v. group): 0.48 ± 0.04 mL
MP before treatment ([1]; 2000 µg/kg i.v. group): 101.8±10.9 mmHg
BVC % change [1, 7]: +32%
MP % change [1, 7]: -20%
BVC after treatment [1, 7]: 0.63 ± 0.05 mL
MP after treatment [1, 7]: 81.5±14.1 mmHg
BVC before treatment ([1]; 3 mg/kg p.o. group): 0.67 ± 0.07 mL
MP before treatment ([1]; 3 mg/kg p.o. group): 112.5±6.5 mmHg
BVC % change [1, 8]: +35%
MP % change [1, 8]: -4%
BVC after treatment [1, 8]: 0.91 ± 0.10 mL
MP after treatment [1, 8]: 107.6±9.2 mmHg
BVC before treatment ([1]; 10 mg/kg p.o. group): 0.54 ± 0.06 mL
MP before treatment ([1]; 10 mg/kg p.o. group): 90.2±7.1 mmHg
BVC % change [1, 9]: +37%
MP % change [1, 9]: -4%
BVC after treatment [1, 9]: 0.73 ± 0.10 mL
MP after treatment [1, 9]: 86.6±7.6 mmHg
effect on MP (in words) ([1]; conscious rats, i.v., NAN-190 up to the highest administrable dose of 300 µg/kg): inactive

O=C(C1CCCCC1)N(CCN1CCN(c2cccc3[nH]ccc23)CC1)c1ccccn1 [Compound B, N-{2-[4-(4-Indolyl)-1-piperazinyl]-ethyl}-N-(2-pyridyl)-cyclohexanecarboxamide]
Ki (α1-adrenergic receptor): 458 nM
ID50 (95%) C.L., antagonistic activity for the pre-synaptic 5-HT1A receptor [2]: 1.9 (1.0-3.7) µg/kg s.c.
